8 compounds from paper PMC2248282 (Chemmedchem, 2007) can be followed below.

In series [1] the test system is human embryonic kidney cells (HEK 293T). Kind of series: Cytotoxicity to mammalian cells. It is filed as cell-based. The conditions noted are these: read-out: IC50 HEK 293T.
Series [2] relates to T. b. brucei (Bs427). Kind of series: In vitro trypanocidal assay. It is filed as cell-based. Particulars: for IC50: Trypanosoma brucei, read-out: IC50 Bs427; for activity against T. b. brucei (in words): in vitro.
A short description of series [3]: LC-MS stability in phosphate buffer saline at 37°C. It is filed as physicochemical.
The mark [4] stands for this setting: phosphate buffered saline, pH 7.2.

A word on the IC50: it is the concentration that gives 50% inhibition. As to `COc1ccc(CONC(=O)C2OC(C)(C)OC2COP(=O)(OCCSC(=O)C(C)(C)C)Oc2ccccc2)c(OC)c1` (stereo not drawn) [Compound 26b, 2,2-Dimethyl-thiopropionic acid S-(2-{[5-(2,4-dimethoxy-benzyloxycarbamoyl)-2,2-dimethyl-[1,3]dioxolan-4-ylmethoxy]-phenoxy-phosphoryloxy}-ethyl) ester], the IC50 in series [1] was more than 200 µM; in series [2], more than 100 µM.
As to `COc1ccc(CONC(=O)C2OC(C)(C)OC2COP(=O)(OCCSC(=O)C(C)(C)C)OCCSC(=O)C(C)(C)C)c(OC)c1` (stereo not drawn) [Compound 24, 2,2-dimethyl-thiopropionic acid S-(2-{[5-(2,4-dimethoxy-benzyloxycarbamoyl)-2,2-dimethyl-[1,3]dioxolan-4-ylmethoxy]-[2-(2,2-dimethyl-propionylsulfanyl)-ethoxy]-phosphoryloxy}-ethyl) ester], the IC50 in series [1] is more than 200 µM; in series [2], 25 µM. In addition, the “activity against T. b. brucei (in words)” value in series [2] was “improved activity”.
By half-life is commonly meant the time in which the quantity being followed falls by half. High values mean slow loss, low ones fast loss. In turn, `COC(=O)C(C)NP(=O)(OCC1OC(C)(C)OC1C(=O)NO)Oc1ccccc1` (stereo not drawn) [Compound 3b, 2-[(5-Hydroxycarbamoyl-2,2-dimethyl-[1,3]dioxolan-4-ylmethoxy)-phenoxy-phosphorylamino]-propionic acid methyl ester] showed a half-life in series [3] (setting [4]) of 300 min. In addition, the 50% inhibitory concentration (IC50) in series [1] was more than 200 µM. Moreover, in series [2], the IC50 was determined as 6.95 µM and the “activity against T. b. brucei (in words)” value was “highest activity”.
Take `CC1(C)OC(COP(=O)(OCCSC(=O)C(C)(C)C)OCCSC(=O)C(C)(C)C)C(C(=O)NO)O1` (stereo not drawn) [Compound 3a, 2,2-Dimethyl-thiopropionic acid S-{2-[[2-(2,2-dimethyl-propionylsulfanyl)-ethoxy]-(5-hydroxycarbamoyl-2,2-dimethyl-[1,3]dioxolan-4-ylmethoxy)-phosphoryloxy]-ethyl} ester]: the half-inhibitory concentration (IC50) in series [1] is more than 200 µM; in series [2] it was 4.23 µM. In addition, in series [2], the “activity against T. b. brucei (in words)” value is on record as “highest activity”.
`CC1(C)OC(COP(=O)(OCOC(=O)C(C)(C)C)OCOC(=O)C(C)(C)C)C(C(=O)NO)O1` (stereo not drawn) [Compound 3e, (5-(hydroxycarbamoyl)-2,2-dimethyl-1,3-dioxolan-4-yl)methyl bis((pivaloyloxy)methyl) phosphate] gave a half-life at 1 mg/mL in series [3] (setting [4]) of 31.8 min. In addition, the IC50 in series [1] is more than 200 µM. In addition, in series [2], the IC50 worked out at 20.2 µM and the “activity against T. b. brucei (in words)” value is listed as “moderate activities”.
Consider `COC(=O)C(C)NP(=O)(OCC1OC(C)(C)OC1C(=O)NO)Oc1ccc([N+](=O)[O-])cc1` (stereo not drawn) [Compound 3c, 2-[(5-Hydroxycarbamoyl-2,2-dimethyl-[1,3]dioxolan-4-ylmethoxy)-(4-nitro-phenoxy)-phosphorylamino]-propionic acid methyl ester], for which the half-life at 1 mg/mL in series [3] (setting [4]) was 51 min. The half-maximal inhibitory concentration (IC50) in series [1] is more than 200 µM. In addition, in series [2], the IC50 was 43.8 µM and the “activity against T. b. brucei (in words)” value is given as “moderate activities”.
`COc1ccc(CONC(=O)C2OC(C)(C)OC2COP(=O)(OCCSC(=O)C(C)(C)C)Oc2ccccc2)cc1` (stereo not drawn) [Compound 26a, 2,2-Dimethyl-thiopropionic acid S-(2-{[5-(4-methoxy-benzyloxycarbamoyl)-2,2-dimethyl-[1,3]dioxolan-4-ylmethoxy]-phenoxy-phosphoryloxy}-ethyl) ester]: the IC50 in series [1] is more than 200 µM; in series [2] it was more than 100 µM.
“2,2-Dimethyl-thiopropionic acid S-(2-{[5-(2,4-dimethoxy-benzyloxycarbamoyl)-2,2-dimethyl-[1,3]dioxolan-4-ylmethoxy]-phenoxy-phosphoryloxy}-ethyl) ester [Compound 3d]” displayed a half-life in series [3] (PBS (pH 7.2) at 37°C, LC-MS, disappearance of molecular ion) of 128 min. For the same compound, the “activity against T. b. brucei (in words)” value in series [2] was “highest activity”.
